# Where two headings read alike, the source gives them in different places.
# Columns and labels:
# MCF-7 = assay: Cytotoxicity assay (SRB), MCF-7; type: cell-based; conditions: Homo sapiens, MCF7, 72 h, MCF-7 cells, SRB, read-out: In Vitro Cellular Activity IC50 MCF-7
# How it was run: (§1)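 Growth inhibition, SRB method: 3-day continuous compound exposure for HCT-116, LoVo and MCF-7 and 6-day exposure for BT474. Absorbance at 540 nm reflects surviving cell protein relative to controls.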
# cyclin E/CDK2 enzyme = molecular target: T1, cyclin E/CDK2 enzyme (Homo sapiens, UniProt P24941); assay: CDK2 ELISA kinase assay (phospho-Rb ser 795 detection); type: biochemical
# T1 construct: made in house; host or cells: Sf9 insect cells, recombinant baculovirus
# How it was run: (§2)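 GST-Rb C-terminal fragment coated on wells; kinase reaction: 200 μM ATP, 0.5 mg/ml BSA, HEPES pH 7.5, 10 mM MgCl2, baculovirus/Sf9 cyclin-CDK, 30° C, 1 h. Readout anti-phospho-Rb Ser795, HRP, TMB, A450. Test compound 10 ug/ml final.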
# HCT-116 = assay: Cytotoxicity assay (SRB), HCT-116; type: cell-based; conditions: Homo sapiens, HCT-116, 72 h, HCT116 cells, SRB, read-out: In Vitro Cellular Activity IC50 HCT116
# How it was run: as §1
# BT474 = assay: Cytotoxicity assay (SRB), BT474; type: cell-based
# How it was run: as §1
# cyclin B/CDK1 enzyme = molecular target: T2, cyclin B/CDK1 enzyme (Homo sapiens, UniProt P06493); assay: CDK1 ELISA kinase assay (phospho-Rb ser 795 detection); type: biochemical
# T2 construct: purchased New England BioLabs; host or cells: Sf9 insect cells, recombinant baculovirus
# How it was run: as §2
# LoVo = assay: Cytotoxicity assay (SRB), LoVo; type: cell-based; conditions: Homo sapiens, LoVo, 72 h, LoVo cells, SRB, read-out: In Vitro Cellular Activity IC50 LOVO
# How it was run: as §1
# cyclin D1/cdk 4 enzyme = molecular target: T3, cyclin D1/cdk 4 enzyme (Homo sapiens, UniProt P11802); assay: CDK4 ELISA kinase assay (phospho-Rb ser 795 detection); type: biochemical
# T3 construct: made in house; host or cells: Sf9 insect cells, recombinant baculovirus
# How it was run: as §2
# [1] = In Vitro Enzyme Assay, cyclin E/CDK2, read-out: CDK2 IC50
# [2] = Homo sapiens, BT-474, 144 h, BT474 cells, 6 days, SRB; read-out: In Vitro Cellular Activity IC50 BT474
# [3] = In Vitro Enzyme Assay, cyclin B/CDK1, read-out: CDK1 IC50
# [4] = In Vitro Enzyme Assay, cyclin D1/cdk 4, read-out: CDK4 IC50
# [5] = In Vitro Enzyme Assays, read-out: CDK2 IC50
# [6] = Homo sapiens, BT-474, 144 h, BT474 cells, SRB, 6 days; read-out: In Vitro Cellular Activity IC50 BT474
# [7] = In Vitro Enzyme Assays, read-out: CDK1 IC50
# [8] = In Vitro Enzyme Assays, 200 μM ATP, read-out: CDK4 IC50
# T2 sequence (P06493 whole entry): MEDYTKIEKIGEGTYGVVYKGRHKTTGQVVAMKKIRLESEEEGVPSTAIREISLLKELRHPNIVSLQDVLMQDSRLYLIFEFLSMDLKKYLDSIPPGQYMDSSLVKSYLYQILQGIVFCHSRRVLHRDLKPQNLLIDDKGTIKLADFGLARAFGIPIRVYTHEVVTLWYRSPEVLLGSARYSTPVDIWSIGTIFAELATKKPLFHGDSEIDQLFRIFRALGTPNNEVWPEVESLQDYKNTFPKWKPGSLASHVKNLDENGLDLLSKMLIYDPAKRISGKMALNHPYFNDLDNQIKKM
# T2 sequence (P14635 whole entry partner): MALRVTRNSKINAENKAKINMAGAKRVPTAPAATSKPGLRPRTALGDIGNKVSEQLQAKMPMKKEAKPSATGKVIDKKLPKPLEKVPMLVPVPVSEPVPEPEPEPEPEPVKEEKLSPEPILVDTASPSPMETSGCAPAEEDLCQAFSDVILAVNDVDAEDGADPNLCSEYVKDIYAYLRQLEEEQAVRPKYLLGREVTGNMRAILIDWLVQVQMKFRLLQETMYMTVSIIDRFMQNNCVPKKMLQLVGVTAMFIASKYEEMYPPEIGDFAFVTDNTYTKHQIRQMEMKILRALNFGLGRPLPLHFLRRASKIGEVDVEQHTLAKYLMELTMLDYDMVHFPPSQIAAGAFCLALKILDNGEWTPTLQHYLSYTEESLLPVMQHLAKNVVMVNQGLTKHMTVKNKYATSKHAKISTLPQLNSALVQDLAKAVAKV
# T3 sequence (P11802 whole entry, species assumed): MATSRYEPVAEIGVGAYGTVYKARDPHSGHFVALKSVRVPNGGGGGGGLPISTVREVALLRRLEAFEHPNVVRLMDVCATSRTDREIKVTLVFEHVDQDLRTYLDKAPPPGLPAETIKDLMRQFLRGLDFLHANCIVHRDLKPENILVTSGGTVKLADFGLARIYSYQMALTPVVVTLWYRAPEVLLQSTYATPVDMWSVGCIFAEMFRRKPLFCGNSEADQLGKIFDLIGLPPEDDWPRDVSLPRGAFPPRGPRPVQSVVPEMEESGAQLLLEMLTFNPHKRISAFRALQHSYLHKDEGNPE
# T3 sequence (P24385 whole entry partner, species assumed): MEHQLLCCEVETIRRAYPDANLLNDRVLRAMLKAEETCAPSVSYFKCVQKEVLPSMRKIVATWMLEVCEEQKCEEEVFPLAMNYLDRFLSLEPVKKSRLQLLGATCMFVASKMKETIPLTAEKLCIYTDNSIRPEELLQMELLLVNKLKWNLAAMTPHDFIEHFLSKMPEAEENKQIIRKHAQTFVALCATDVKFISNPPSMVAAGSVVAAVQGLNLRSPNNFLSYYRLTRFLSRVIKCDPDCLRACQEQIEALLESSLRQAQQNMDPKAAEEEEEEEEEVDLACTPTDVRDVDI
SMILES,IC50 (cyclin E/CDK2 enzyme; [1]) [µM],IC50 (cyclin B/CDK1 enzyme; [3]) [µM],IC50 (cyclin D1/cdk 4 enzyme; [4]) [µM],IC50 (cyclin E/CDK2 enzyme; [5]) [µM],IC50 (cyclin B/CDK1 enzyme; [7]) [µM],IC50 (cyclin D1/cdk 4 enzyme; [8]) [µM],"IC50 (cyclin E/CDK2 enzyme; In Vitro Enzyme Assay, read-out: CDK2 IC50) [µM]","IC50 (cyclin B/CDK1 enzyme; In Vitro Enzyme Assay, read-out: CDK1 IC50) [µM]","IC50 (cyclin D1/cdk 4 enzyme; In Vitro Enzyme Assay, read-out: CDK4 IC50) [µM]",IC50 (MCF-7; 3 days) [µM],IC50 (HCT-116; 3 days) [µM],IC50 (BT474; [2]) [µM],IC50 (LoVo; 3 days) [µM],IC50 (MCF-7; three days) [µM],IC50 (HCT-116; three days) [µM],IC50 (BT474; [6]) [µM],IC50 (LoVo; three days) [µM]
"NS(=O)(=O)c1ccc(CNC=C2C(=O)NC(=O)c3ccc(-c4ccc[nH]4)cc32)cc1 [Example 638, 4-({[1,3-Dioxo-6-(1H-pyrrol-2-yl)-2,3-dihydro-1H-isoquinolin-4-ylidenemethyl]-amino}-methyl)-benzenesulfonamide]",6,17.3,0.05,–,–,–,–,–,–,> 50,> 50,35.9,> 50,–,–,–,–
"O=C1NC(=O)c2ccc(-c3ccoc3)cc2/C1=C/NCc1ccc(-c2ccccc2)c(O)c1 [Example 494, 6-Furan-3-yl-4-{[(2-hydroxy-biphenyl-4-ylmethyl)-amino]-methylene}-4H-isoquinoline-1,3-dione]",18.4,42.5,0.03,–,–,–,–,–,–,1,0.58,0.53,0.52,–,–,–,–
"CCCOc1ccc(CN/C=C2\C(=O)NC(=O)c3ccc(-c4ccoc4)cc32)cc1O [Example 485, (4Z)-6-(3-Furyl)-4-{[(3-hydroxy-4-propoxybenzyl)amino]methylene}isoquinoline-1,3(2H,4H)-dione]",> 50,> 50,0.06,–,–,–,–,–,–,1.42,1.36,1.07,0.94,–,–,–,–
"O=C1NC(=O)c2ccc(Br)cc2/C1=C/NCc1ccc(NC(=O)C(Cl)Cl)c(O)c1 [Example 320, N-[4-({[(Z)-(6-Bromo-1,3-dioxo-2,3-dihydroisoquinolin-4(1H)-ylidene)methyl]amino}methyl)-2-hydroxyphenyl]-2,2-dichloroacetamide]",–,–,–,4,6.8,0.12,–,–,–,–,–,–,–,4.9,2.1,2,4.5
"NS(=O)(=O)c1ccc(CNC=C2C(=O)NC(=O)c3ccc(-c4cc5ccccc5s4)cc32)cc1 [Example 635, 4-{[(6-Benzo[b]thiophen-2-yl-1,3-dioxo-2,3-dihydro-1H-isoquinolin-4-ylidenemethyl)-amino]-methyl}-benzenesulfonamide]",19.7,16.9,1.2,–,–,–,–,–,–,11.4,23.6,37.2,> 50,–,–,–,–
"CN1CCN(c2ncc(N/C=C3\C(=O)NC(=O)c4ccc(-c5ccoc5)cc43)cn2)CC1 [Example 484, (4Z)-6-(3-Furyl)-4-({[2-(4-methylpiperazin-1-yl)pyrimidin-5-yl]amino}methylene)isoquinoline-1,3(2H,4H)-dione]",> 50,31,0.25,–,–,–,–,–,–,3.23,1.13,2.49,1.24,–,–,–,–
"CN1Cc2ccc(N/C=C3\C(=O)NC(=O)c4ccc(Br)cc43)cc2C1 [Example 868, (4Z)-6-Bromo-4-{[(2-methyl-2,3-dihydro-1H-isoindol-5-yl)amino]methylene}isoquinoline-1,3(2H,4H)-dione]",–,–,–,–,–,–,2.5,20.7,1.2,5.5,2.5,6.8,3.9,–,–,–,–
"CN(C)CCCCN/C=C1\C(=O)NC(=O)c2ccc(Br)cc21 [Example 305, (Z)-6-Bromo-4-((4-(dimethylamino)butylamino)methylene)isoquinoline-1,3(2H,4H)-dione]",–,–,–,39.7,> 50,1.7,–,–,–,–,–,–,–,18,21,23,14
"NS(=O)(=O)c1ccc(CNC=C2C(=O)NC(=O)c3ccc(C=Cc4cnccn4)cc32)cc1 [Example 655, 4-({[1,3-Dioxo-6-(2-pyrazin-2-yl-vinyl)-2,3-dihydro-1H-isoquinolin-4-ylidenemethyl]-amino}-methyl)-benzenesulfonamide]",11,23.6,0.57,–,–,–,–,–,–,7.7,1.2,2,7.6,–,–,–,–

# Continued, in another order:
IC50 (cyclin E/CDK2 enzyme; [1]) [µM],IC50 (cyclin B/CDK1 enzyme; [3]) [µM],IC50 (cyclin D1/cdk 4 enzyme; [4]) [µM],IC50 (cyclin E/CDK2 enzyme; [5]) [µM],IC50 (cyclin B/CDK1 enzyme; [7]) [µM],IC50 (cyclin D1/cdk 4 enzyme; [8]) [µM],"IC50 (cyclin E/CDK2 enzyme; In Vitro Enzyme Assay, read-out: CDK2 IC50) [µM]","IC50 (cyclin B/CDK1 enzyme; In Vitro Enzyme Assay, read-out: CDK1 IC50) [µM]","IC50 (cyclin D1/cdk 4 enzyme; In Vitro Enzyme Assay, read-out: CDK4 IC50) [µM]",SMILES,IC50 (MCF-7; 3 days) [µM],IC50 (HCT-116; 3 days) [µM],IC50 (BT474; [2]) [µM],IC50 (LoVo; 3 days) [µM],IC50 (MCF-7; three days) [µM],IC50 (HCT-116; three days) [µM],IC50 (BT474; [6]) [µM],IC50 (LoVo; three days) [µM]
23.6,45.5,0.15,–,–,–,–,–,–,"O=C1NC(=O)c2ccc(-c3ccc[nH]3)cc2C1=CNc1ccc(CN2CCCC2)cc1 [Example 838, 4-[(4-Pyrrolidin-1-ylmethyl-phenylamino)-methylene]-6-(1H-pyrrol-2-yl)-4H-isoquinoline-1,3-dione]",8.2,7.2,23.5,17.2,–,–,–,–
–,–,–,17.6,25.3,2.1,–,–,–,"O=C1NC(=O)c2ccc(I)cc2/C1=C/Nc1ccc(N2CCNCC2)nc1 [Example 410, (4Z)-6-Iodo-4-{[(6-piperazin-1-ylpyridin-3-yl)amino]methylene}isoquinoline-1,3(2H,4H)-dione]",5.1,2.8,2.3,6.8,–,–,–,–
–,–,–,> 50,> 50,0.5,–,–,–,"O=C1NC(=O)c2ccc(I)cc2/C1=C/Nc1ccc(N2CCN(CC3CC3)CC2)cc1 [Example 391, (4Z)-4-[({4-[4-(Cyclopropylmethyl)piperazin-1-yl]phenyl}amino)methylene]-6-iodoisoquinoline-1,3(2H,4H)-dione]",2.6,2.4,3,7.3,–,–,–,–
> 50,> 50,0.14,–,–,–,–,–,–,"O=C1NC(=O)c2ccc(I)cc2/C1=C/Nc1ccc(C2CCCN2CCO)cc1 (centres unmarked) [Example 464, 4-({4-[1-(2-Hydroxy-ethyl)-pyrrolidin-2-yl]-phenylamino}-methylene)-6-iodo-4H-isoquinoline-1,3-dione]",2.4,3.2,6.6,4.6,–,–,–,–
–,–,–,33.2,> 50,0.69,–,–,–,"O=C1NC(=O)c2ccc(I)cc2/C1=C/Nc1ccc(N2CCN(C3CCC3)CC2)cc1 [Example 392, (4Z)-4-({[4-(4-Cyclobutylpiperazin-1-yl)phenyl]amino}methylene)-6-iodoisoquinoline-1,3(2H,4H)-dione]",4.2,2.5,3.8,4.8,–,–,–,–
–,–,–,> 50,> 50,0.28,–,–,–,"CN(C)CCNCC1CCN(c2ccc(N/C=C3\C(=O)NC(=O)c4ccc(I)cc43)cc2)CC1 [Example 446, (4Z)-4-[({4-[4-({[2-(Dimethylamino)ethyl]amino}methyl)piperidin-1-yl]phenyl}amino)methylene]-6-iodoisoquinoline-1,3(2H,4H)-dione]",3,1.7,3.4,2.9,–,–,–,–
–,–,–,> 50,> 50,0.06,–,–,–,"CN1CCCC1c1ccc(N/C=C2\C(=O)NC(=O)c3ccc(-c4ccoc4)cc32)cc1 (centres unmarked) [Example 451, 6-Furan-3-yl-4-{[4-(1-methyl-pyrrolidin-2-yl)-phenylamino]-methylene}-4H-isoquinoline-1,3-dione]",1,2.8,1,2.5,–,–,–,–
–,–,–,> 50,> 50,0.19,–,–,–,"COC1CCN(Cc2ccc(N/C=C3\C(=O)NC(=O)c4ccc(Br)cc43)cc2)CC1 [Example 397, (4Z)-6-Bromo-4-[({4-[(4-methoxypiperidin-1-yl)methyl]phenyl}amino)methylene]isoquinoline-1,3(2H,4H)-dione]",3.6,2.8,6.18,4.3,–,–,–,–
